In a melting point compilation (Tetko et al.) one finds melting point data, which are given here for 49 compounds.

`O=C(CCl)NC1CS(=O)(=O)CC1Cl` (centres undefined) came in with a melting point of 181 to 190 °C. Under `N#Cc1ccc(Cl)nn1` stands 83 to 85 °C. The compound `Cn1c(Cl)c(C=O)c2ccccc21` gave a melting point of 92 to 94 °C. In turn, `C#CCNC(=O)CCl` yielded a melting point of 63 to 67 °C. Under `CCCCCCCCCC(=O)N[C@@H](CCC(N)=O)C(=O)O` stands 129 to 131 °C; under `COC(=O)c1ccc(NC(C)=O)c(C)c1`, 132 to 134 °C; under `O=C(c1cc2ccccc2cc1O)N1CCOCC1`, 216 to 218 °C. Under `Cc1nc(S)c(C(N)=O)c(C)c1C` stands 294 to 296 °C.

`Fc1cc2nc(Cl)ccc2cc1Br` gave a melting point of 161 to 163 °C. On to `CC(C)(C)OC(=O)N1CCC(c2ccc(C(F)(F)F)cc2)C(N)C1` (centres undefined), for which the melting point lay in the range of 77 to 79 °C. For `O=C(O)C1CCSCC1`, the melting point was in the range of 109 to 111 °C.

Compound `O=[N+]([O-])c1ccc(N2CCNCC2)cn1` registered a melting point of 147 to 149 °C. Under `Cc1ccc2c(c1)NC(=O)C(C)O2` (centres undefined) stands 146 to 148 °C. With `CNCc1ccc(N)nc1` the figure was 84 to 86 °C; with `Nc1nnc(-c2cccc(OC(F)F)c2)o1`, 179 to 181 °C. With `O=C(c1ccc(Cl)cc1)c1ccccn1` the figure was 63 to 65 °C; with `CC(C)(C)OC(=O)N[C@H]1C[C@H](N)C1`, 60 to 62 °C; with `CN(C)C(=O)COc1ccc(N)c(F)c1`, 106 to 108 °C.

In the case of `O=C(O)c1ccc(-c2cscn2)cc1`, the melting point lay within 278 to 280 °C. `CCc1onc(C)c1C(=O)O` came in with a melting point of 126 to 128 °C. `Sc1nc(-c2ccccc2)c(-c2ccccc2)n1Cc1ccccc1` had a melting point of 280 to 282 °C. With `CC(C)c1ccc(SC(C(=O)O)c2ccccc2)cc1` (centres undefined) the figure was 99 to 101 °C. `CC(C)Nc1ccccn1`: the melting point was 41 to 43 °C. Under `Cc1cccc(NC(=O)CCl)c1` stands 128 to 130 °C; under `Nc1onc(C2CCCC2)c1-c1ccc2c(c1)OCO2`, 122 to 124 °C.

The compound `O=C1CCCc2sc(Br)cc21` showed a melting point of 76 to 78 °C. With `CC(C)(C)OC(=O)N1CCc2ncc(N)cc2C1` the figure was 116 to 118 °C; with `CC(=O)N1CCC(C)(C(=O)O)C1` (centres undefined), 120 to 122 °C; with `Cc1cc(Cl)cc(C)c1C=O`, 39 to 41 °C.

In turn, `NS(=O)(=O)c1ccc(NCC(=O)O)cc1` had a melting point of 239 to 241 °C.

`CC(C)(C)OC(=O)N1CCN(c2ncccc2C#N)CC1` came in with a melting point of 65 to 67 °C.

For the compound `Cc1nc2c3ccccc3nc(Cl)n2n1`, the melting point lay within 140 to 142 °C.

Take `Nc1nc2c(cc1C(=O)O)CCCC2`: the melting point was 285 to 287 °C.

Consider `CS(=O)(=O)Nc1ccccc1I`, for which the melting point fell in the range of 96 to 98 °C. Under `CNS(=O)(=O)c1ccccc1CN` stands 115 to 117 °C; under `CC1CN(c2ccc(C(=O)O)cn2)CC(C)O1` (centres undefined), 219 to 221 °C.

For the compound `Cc1ccc(C(=O)NCCC(=O)O)c(O)c1`, the melting point is 159 to 161 °C.

The compound `N#Cc1ccc(N2C(=O)C=CC2=O)cc1` had a melting point of 138 to 140 °C.

For the compound `O=S(=O)(c1ccc(N=C=S)cc1)N1CCOCC1`, the melting point is 99 to 101 °C. With `COC(=O)c1ccc(S(N)(=O)=O)s1` the figure was 150 to 152 °C; with `COc1ccc(OCc2cc(C)on2)c(C(=O)O)c1`, 114 to 116 °C. With `CNC(CO)c1ccc(OC)cc1` (centres undefined) the figure was 57 to 59 °C; with `ClCCc1ncc(-c2ccccc2)o1`, 68 to 70 °C.

The compound `Nc1nc(-c2ccccc2Cl)cs1` came in with a melting point of 142 to 144 °C.

In the case of `CC(C)(C)OC(=O)NC1CC2CCCC(C1)C2N` (centres undefined), the melting point lay within 110 to 112 °C.

As for `Cc1nc2ccnn2c(C)c1CCC(=O)O`, the melting point lay in the range of 223 to 225 °C. With `Nc1nc(-c2ccc3c(c2)OCCO3)n[nH]1` the figure was 178 to 180 °C.

In turn, `N#Cc1c(Cl)nc2ccccn12` displayed a melting point of 181 to 183 °C.

`O=C(c1cc(Br)c[nH]1)N1CCCC1` had a melting point of 210 to 212 °C.
